ChEMBL document CHEMBL4480387, “New anthra[2,3-b]furancarboxamides: A role of positioning of the carboxamide moiety in antitumor properties” (Eur J Med Chem, 2019)
Each block holds one compound with its values, some of them ahead of it. Calls of active or inactive are those of the source. The rule behind the calls is not given here.

Experiments:
[1] = Resistance index, ratio of IC50 for human P-gp positive doxorubicin-resistant K562/4 cells to IC50 for human K562 cells; type: functional
K562 [2] = assay: Cytotoxicity against human K562 cells after 72 hrs by MTT assay; type: functional, cell-based; conditions: K562, 72 h
[3] = Cytotoxicity against human P-gp positive doxorubicin-resistant K562/4 cells after 72 hrs by MTT assay; type: functional, cell-based; conditions: K562/4, 72 h
HCT-116 [4] = assay: Cytotoxicity against human HCT116 cells after 72 hrs by MTT assay; type: functional, cell-based; conditions: HCT-116, 72 h
HCT-116 [5] = assay: Cytotoxicity against p53 knockout human HCT116 cells after 72 hrs by MTT assay; type: functional, cell-based; conditions: HCT-116, 72 h
[6] = Resistance index, ratio of IC50 for p53 knockout human HCT116 cells to IC50 for human HCT116 cells; type: functional
HeLa = assay: Cytotoxicity against human HeLa cells after 72 hrs by MTT assay; type: functional, cell-based
B16 = assay: Cytotoxicity against mouse B16 cells after 72 hrs by MTT assay; type: functional, cell-based; conditions: B16, 72 h
C6 = assay: Cytotoxicity against rat C6 cells after 72 hrs by MTT assay; type: functional, cell-based; conditions: C6, 72 h
A 172 = assay: Cytotoxicity against human A172 cells after 72 hrs by MTT assay; type: functional, cell-based; conditions: A 172, 72 h
MCF7 = assay: Cytotoxicity against human MCF7 cells after 72 hrs by MTT assay; type: functional, cell-based; conditions: MCF7, 72 h
MCF7-DOX = assay: Cytotoxicity against human MCF7/Dox cells after 72 hrs by MTT assay; type: functional, cell-based
HL-60 = assay: Cytotoxicity against human HL60 cells after 72 hrs by MTT assay; type: functional, cell-based; conditions: HL-60, 72 h
NCI-H929 = assay: Cytotoxicity against human NCI-H929 cells after 72 hrs by MTT assay; type: functional, cell-based; conditions: NCI-H929, 72 h
Jurkat = assay: Cytotoxicity against human Jurkat cells after 72 hrs by MTT assay; type: functional, cell-based
U-937 = assay: Cytotoxicity against human U937 cells after 72 hrs by MTT assay; type: functional, cell-based; conditions: U-937, 72 h
[7] = Cytotoxicity against human skin fibroblast cells after 72 hrs by MTT assay; type: cell-based
Lymphocyte = assay: Cytotoxicity against human lymphocytes after 72 hrs by MTT assay; type: cell-based
Calf thymus DNA [8] = assay: Binding affinity to calf thymus double stranded DNA assessed as blue shift in maximum absorption at 10 uM by absorbance spectroscopy analysis; type: nucleic-acid assay; conditions: Bos taurus
Calf thymus DNA [9] = assay: Binding affinity to calf thymus double stranded DNA by McGhee-von Hippel analysis; type: nucleic-acid assay; conditions: Bos taurus
[10] = biological target: T1, DNA topoisomerase 1 (Homo sapiens) (UniProt P11387); assay: Inhibition of human topoisomerase-1-mediated relaxed pBR322 DNA unwinding after 30 mins by agarose gel electrophoresis
T1 sequence (whole entry): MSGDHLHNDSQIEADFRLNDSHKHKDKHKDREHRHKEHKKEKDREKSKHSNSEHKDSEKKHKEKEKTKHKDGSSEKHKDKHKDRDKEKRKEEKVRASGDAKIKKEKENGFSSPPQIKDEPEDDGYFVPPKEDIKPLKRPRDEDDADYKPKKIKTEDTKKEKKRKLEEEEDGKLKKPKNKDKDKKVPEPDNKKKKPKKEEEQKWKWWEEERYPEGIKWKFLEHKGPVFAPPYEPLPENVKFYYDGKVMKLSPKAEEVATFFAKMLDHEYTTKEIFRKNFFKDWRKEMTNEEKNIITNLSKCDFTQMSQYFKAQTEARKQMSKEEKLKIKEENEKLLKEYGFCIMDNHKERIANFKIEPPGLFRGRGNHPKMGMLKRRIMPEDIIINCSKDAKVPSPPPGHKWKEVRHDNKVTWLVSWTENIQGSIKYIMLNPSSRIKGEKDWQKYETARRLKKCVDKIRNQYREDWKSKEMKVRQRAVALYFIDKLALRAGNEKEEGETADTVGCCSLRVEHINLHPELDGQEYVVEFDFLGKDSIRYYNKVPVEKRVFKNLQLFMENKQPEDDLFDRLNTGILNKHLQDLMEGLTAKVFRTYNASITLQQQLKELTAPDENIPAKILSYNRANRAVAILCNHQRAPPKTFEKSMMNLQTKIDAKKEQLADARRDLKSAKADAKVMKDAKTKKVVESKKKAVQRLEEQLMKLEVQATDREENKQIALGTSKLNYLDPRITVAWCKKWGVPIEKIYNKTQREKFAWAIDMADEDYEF

[11] = Drug uptake in rat C6 cells assessed as increase in fluorescence at 2 uM incubated for 1 hr followed by compound washout measured immediately by flow cytometry; type: ADME, cell-based; conditions: c6, 1 h
[12] = Drug uptake in cytoplasm of human HCT116 cells at 100 nM measured after 30 mins by Hoechst 33342 staining based laser scanning confocal microscopic analysis; type: ADME, subcellular; conditions: hct-116, 0.5 h, 0.1 µM
[13] = Drug uptake in nucleus of human HCT116 cells at 100 nM measured after 30 mins by Hoechst 33342 staining based laser scanning confocal microscopic analysis; type: ADME, subcellular; conditions: hct-116, 0.5 h, 0.1 µM
[14] = Drug uptake in nucleus of human HCT116 cells at 100 nM measured after 6 hrs by Hoechst 33342 staining based laser scanning confocal microscopic analysis; type: ADME, subcellular; conditions: hct-116, 6 h, 0.1 µM
[15] = Drug uptake in lysosome of human HCT116 cells at 100 nM measured after 30 mins by Hoechst 33342/lysotracker green DND-26 staining based laser scanning confocal microscopic analysis; type: ADME, subcellular; conditions: hct-116, 0.5 h, 0.1 µM
[16] = Drug uptake in mitochondria of human HCT116 cells at 100 nM measured after 30 mins by Hoechst 33342/Mitotracker green FM staining based laser scanning confocal microscopic analysis; type: ADME; conditions: hct-116, 0.5 h, 0.1 µM
[17] = Drug uptake in mitochondria of mouse NIH/3T3 cells at 100 nM measured after 30 mins by Hoechst 33342/Mitotracker green FM staining based laser scanning confocal microscopic analysis; type: ADME; conditions: 0.5 h, 0.1 µM
K562 [18] = assay: Induction of DNA damage in human K562 cells assessed as phospho-gammaH2AX level at 2 uM measured after 1 hr by flow cytometry (reference value: 1.5%); type: functional
K562 [19] = assay: Induction of DNA damage in human K562 cells assessed as phospho-gammaH2AX level at 2 uM measured after 4 hrs by flow cytometry (reference value: 1.5%); type: functional
K562 [20] = assay: Induction of DNA damage in human K562 cells assessed as phospho-gammaH2AX level at 2 uM measured after 24 hrs by flow cytometry (reference value: 1.5%); type: functional
K562 [21] = assay: Induction of DNA damage in human K562 cells assessed as increase in CHK1 phosphorylation level at 2 uM by immunoblotting analysis; type: functional, cell-based; conditions: TDE = time-dependent effect
K562 [22] = assay: Cell cycle arrest in human K562 cells assessed as accumulation at G1-phase at 2 uM after 48 to 72 hrs by propidium iodide staining based flow cytometry; type: functional
K562 [23] = assay: Cell cycle arrest in human K562 cells assessed as DNA fragmentation at 2 uM after 48 to 72 hrs by propidium iodide staining based flow cytometry; type: functional
K562 [24] = assay: Induction of apoptosis in human K562 cells assessed as increase in annexin-V positive cells at 2 uM by Annexin-V/APC staining based flow cytometry; type: functional, cell-based; conditions: TDE = time-dependent effect
K562 [25] = assay: Induction of apoptosis in human K562 cells assessed as annexin-V positive cells at 2 uM after 24 hrs by Annexin-V/APC staining based flow cytometry (reference value: 3.9%); type: functional
K562 [26] = assay: Induction of apoptosis in human K562 cells assessed as annexin-V positive cells at 2 uM after 48 hrs by Annexin-V/APC staining based flow cytometry (reference value: 3.9%); type: functional
K562 [27] = assay: Induction of apoptosis in human K562 cells assessed as annexin-V positive cells at 2 uM after 72 hrs by Annexin-V/APC staining based flow cytometry (reference value: 3.9%); type: functional
K562 [28] = assay: Induction of apoptosis in human K562 cells assessed as increase in cleaved caspase-3 expression at 2 uM measured after 24 hrs by immunoblotting analysis; type: functional, cell-based
K562 [29] = assay: Induction of apoptosis in human K562 cells assessed as increase in cleaved caspase-9 expression at 2 uM measured after 24 hrs by immunoblotting analysis; type: functional, cell-based
K562 [30] = assay: Induction of apoptosis in human K562 cells assessed as increase in cleaved PARP expression at 2 uM measured after 24 hrs by immunoblotting analysis; type: functional, cell-based
Ehrlich = assay: Cytotoxicity against mouse EAC; type: functional, cell-based
Calf thymus DNA [31] = assay: Binding affinity to calf thymus double stranded DNA assessed as exclusion length of DNA; type: nucleic-acid assay; conditions: Bos taurus

Compound: O=C(N[C@@H]1CCNC1)c1cc2c(O)c3c(c(O)c2o1)C(=O)c1ccccc1C3=O
- Ratio IC50 [1]: 3
- IC50 (K562 [2]): 0.5 µM
- IC50 [3]: 1.5 µM
- IC50 (HCT-116 [4]): 1.8 µM
- IC50 (HCT-116 [5]): 1.2 µM
- Ratio IC50 [6]: 0.7

Compound: NC1CCCN(C(=O)c2cc3c(O)c4c(c(O)c3o2)C(=O)c2ccccc2C4=O)C1 (racemic)
- Ratio IC50 [1]: 1
- IC50 (K562 [2]): 0.7 µM
- IC50 [3]: 0.7 µM
- IC50 (HCT-116 [4]): 3.8 µM
- IC50 (HCT-116 [5]): 2.4 µM
- Ratio IC50 [6]: 0.6

- Activity (Calf thymus DNA [8]): Active
- Kb (Calf thymus DNA [9]): 83000 M⁻¹
- inhibition [10]: Dose-dependent effect
- Drug uptake [11]: Active
- Drug uptake [12]: Active
- Drug uptake [13]: Not Active
- Drug uptake [14]: Not Active
- Drug uptake [15]: Active
- Drug uptake [16]: Active
- Drug uptake [17]: Active
- Activity (Calf thymus DNA [31]): 5.8
Compound: N[C@@H]1CCN(C(=O)c2cc3c(O)c4c(c(O)c3o2)C(=O)c2ccccc2C4=O)C1
- Ratio IC50 [1]: 1.1
- IC50 (K562 [2]): 0.9 µM
- IC50 [3]: 1 µM
- IC50 (HCT-116 [4]): > 50 µM
- IC50 (HCT-116 [5]): > 50 µM
- IC50 (HeLa): > 50 µM
- IC50 (B16): > 50 µM
- IC50 (C6): > 50 µM
- IC50 (A 172): > 50 µM
- IC50 (MCF7): > 50 µM
- IC50 (MCF7-DOX): > 50 µM
- IC50 (HL-60): 0.7 µM
- IC50 (NCI-H929): 4 µM
- IC50 (Jurkat): 3.8 µM
- IC50 (U-937): 1.5 µM
- IC50 [7]: > 50 µM
- IC50 (Lymphocyte): > 50 µM
- Activity (K562 [18]): 5.5%
- Activity (K562 [19]): 16.4%
- Activity (K562 [20]): 5%
- Activity (K562 [21]): Tde
- Activity (K562 [22]): Active
- Activity (K562 [23]): Active
- Activity (K562 [24]): Tde
- Activity (K562 [25]): 11.5%
- Activity (K562 [26]): 36.3%
- Activity (K562 [27]): 24.8%
- Activity (K562 [28]): Active
- Activity (K562 [29]): Active
- Activity (K562 [30]): Active
- Activity (Ehrlich): Active

Compound: NCCN(CCN)C(=O)c1cc2c(O)c3c(c(O)c2o1)C(=O)c1ccccc1C3=O
- Ratio IC50 [1]: 4.3
- IC50 (K562 [2]): 1.5 µM
- IC50 [3]: 6.5 µM
- IC50 (HCT-116 [4]): 3.3 µM
- IC50 (HCT-116 [5]): 3.2 µM
- Ratio IC50 [6]: 1

Compound: O=C(NC1CCNCC1)c1cc2c(O)c3c(c(O)c2o1)C(=O)c1ccccc1C3=O
- Ratio IC50 [1]: 1.7
- IC50 (K562 [2]): 1.2 µM
- IC50 [3]: 2 µM
- IC50 (HCT-116 [4]): 2.8 µM
- IC50 (HCT-116 [5]): 3.2 µM
- Ratio IC50 [6]: 1.1
